Like-named read-outs stand apart in the source and are kept apart here.
How the values were obtained:
[1] = target: T1, menin-MLL interaction (Menin MLL 4-43) (Homo sapiens, UniProt O00255); test: Fluorescence polarization (FP) competition assay; assay type: binding
T1 sequence (O00255 1-610): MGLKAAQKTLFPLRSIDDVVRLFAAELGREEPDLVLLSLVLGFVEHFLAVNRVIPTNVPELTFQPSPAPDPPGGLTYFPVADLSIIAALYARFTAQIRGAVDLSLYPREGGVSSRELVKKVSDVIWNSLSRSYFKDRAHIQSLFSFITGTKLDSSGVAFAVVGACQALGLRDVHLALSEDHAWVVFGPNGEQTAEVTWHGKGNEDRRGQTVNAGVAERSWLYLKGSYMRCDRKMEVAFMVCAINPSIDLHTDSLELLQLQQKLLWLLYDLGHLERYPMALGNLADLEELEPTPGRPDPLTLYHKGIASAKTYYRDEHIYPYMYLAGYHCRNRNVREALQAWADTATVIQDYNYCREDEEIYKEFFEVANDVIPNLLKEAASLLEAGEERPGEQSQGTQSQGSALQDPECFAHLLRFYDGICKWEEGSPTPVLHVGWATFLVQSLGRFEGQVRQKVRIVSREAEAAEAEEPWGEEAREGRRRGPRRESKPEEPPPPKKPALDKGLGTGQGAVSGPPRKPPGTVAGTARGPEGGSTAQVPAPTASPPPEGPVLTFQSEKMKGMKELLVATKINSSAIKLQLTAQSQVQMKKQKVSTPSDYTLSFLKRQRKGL

MV4;11 cells = test: MTT cell proliferation assay; assay type: cell-based; details: Homo sapiens
Experimental: The ability of a compound of the present disclosure to inhibit the growth of cells was tested in MLL leukemia cell lines (e.g., MV4;11) using the MTT cell proliferation assay (ATCC® 30-1010K). […] Cells were plated at about 1×10^5 cells per well in a 96-well plate. A compound of the present disclosure was added at a concentration up to about 2 μM with seven, 2-fold serial dilutions for each compound. Cells were incubated at 37° C. for 72 hours, then cells in the control wells were counted. Media was changed to restore viable cell numbers to the original concentration, and compounds were re-supplied. Proliferation was measured 96 hours later using MTT reagents, as per kit instructions. […] As used in the Examples and Figures herein, Compound A refers to Compound 3 in Table 1.

[2] = tested on: MV4;11 (human leukemia) tumor; test: Efficacy study in mouse xenograft tumor model; assay type: in vivo; details: female nude mice, subcutaneous MV4;11, oral gavage 150 mg/kg bid
Experimental: Immunocompromised 8-10 week-old female nude (nu/nu) mice were used for in vivo efficacy studies in accordance with IACUC guidelines. Human MV4;11 leukemia cells available from ATCC were implanted subcutaneously into female nude mice (5×10^6 cells/mouse). When the tumor reached a size of approximately 150 to 250 mm^3, the tumor-bearing mice were randomly assigned to a vehicle control or a compound treatment group (8 mice per group). Mice in the treatment group were administered a compound of the present disclosure by oral gavage (150 mg/kg, bid). Subcutaneous tumor volume and mouse body weight were measured twice weekly. Tumor volumes were calculated by measuring two perpendicular diameters with calipers (V=(length×width^2)/2). […] As used in the Examples and Figures herein, Compound B refers to Compound 82 in Table 1.

[3] = fluorescence polarization assay, read-out: Menin MLL 4-43 IC50
[4] = measured in accordance with Example 8, read-out: IC50 value (ability of the compound to disrupt the menin-MLL interaction)

| SMILES | IC50 [1, 3] | further results |
| --- | --- | --- |
| Cc1c(CN2CCC(Nc3ncnc4sc(CC(F)(F)F)cc34)CC2)ccc2c1cc(C#N)n2CC12CC(NC(=O)C(C)O)(C1)C2 (centres unmarked) [Compound 66] | 50 to 250 nM |  |
| Cc1c(CN2CCC(Nc3ncnc4sc(CC(F)(F)F)cc34)CC2)ccc2c1cc(C#N)n2CC12CC(NC(=O)C(O)CO)(C1)C2 (centres unmarked) [Compound 67] | 50 to 250 nM |  |
| Cc1c(CN2CCC(Nc3ncnc4sc(CC(F)(F)F)cc34)CC2)ccc2c1cc(C#N)n2CC12CC(NC(=O)C3(O)CC3)(C1)C2 [Compound 68] | 50 to 250 nM |  |
| Cc1c(CN2CCC(Nc3ncnc4sc(CC(F)(F)F)cc34)CC2)ccc2c1cc(C#N)n2CC12CC(NC(=O)C(N)C(F)(F)F)(C1)C2 (centres unmarked) [Compound 69] | 250 to 1000 nM |  |
| CCCCC(N)C(=O)NC12CC(Cn3c(C#N)cc4c(C)c(CN5CCC(Nc6ncnc7sc(CC(F)(F)F)cc67)CC5)ccc43)(C1)C2 (centres unmarked) [Compound 72] | 50 to 250 nM |  |
| CCCCC(NC)C(=O)NC12CC(Cn3c(C#N)cc4c(C)c(CN5CCC(Nc6ncnc7sc(CC(F)(F)F)cc67)CC5)ccc43)(C1)C2 (centres unmarked) [Compound 73] | 50 to 250 nM |  |
| Cc1c(CN2CCC(Nc3ncnc4sc(CC(F)(F)F)cc34)CC2)ccc2c1cc(C#N)n2CC12CC(NC(=O)C(N)CC(F)(F)F)(C1)C2 (centres unmarked) [Compound 74] | 250 to 1000 nM |  |
| CCC(=O)NC12CC(Cn3c(C#N)cc4cc(CN5CCC(Nc6ncnc7sc(CC(F)(F)F)cc67)CC5)c(O)cc43)(C1)C2 [Compound 75] | 50 to 250 nM |  |
| Cc1c(CN2CCC(Nc3ncnc4sc(CC(F)(F)F)cc34)CC2)ccc2c1cc(C#N)n2CC12CC(NC(=O)Cc3ccccc3)(C1)C2 [Compound 77] | 250 to 1000 nM |  |
| Cc1c(CN2CCC(Nc3ncnc4sc(CC(F)(F)F)cc34)CC2)ccc2c1cc(C#N)n2CC12CC(NC(=O)Cc3cccc(N)c3)(C1)C2 [Compound 78] | 250 to 1000 nM |  |

Second part, led by results:

| IC50 [1, 3] | SMILES | further results |
| --- | --- | --- |
| 50 to 250 nM | CCC(=O)NC12CC(Cn3c(C#N)cc4c(C)c(CN5CCC(Nc6ncnc7sc(CC(F)(F)F)cc67)CC5)ccc43)(C1)C2 [Compound 3] | IC50 [1, 4]: ≤ 50 nM; GI50 (MV4;11 cells): 40 nM; MV4;11 tumor growth (tumor volume) relative to vehicle control [2]: inhibited tumor growth and induced tumor regression |
| 50 to 250 nM | Cc1c(CN2CCC(Nc3ncnc4sc(CC(F)(F)F)cc34)CC2)ccc2c1cc(C#N)n2CC12CC(NC(=O)C(C)(C)O)(C1)C2 [Compound 63] |  |
| < 50 nM | Cc1c(CN2CCC(Nc3ncnc4sc(CC(F)(F)F)cc34)CC2)ccc2c1cc(C#N)n2CC12CC(NC(=O)C(C)N)(C1)C2 (centres unmarked) [Compound 64] |  |
| < 50 nM | Cc1c(CN2CCC(Nc3ncnc4sc(CC(F)(F)F)cc34)CC2)ccc2c1cc(C#N)n2CC12CC(NC(=O)C(N)c3ccccc3)(C1)C2 (centres unmarked) [Compound 65] |  |
| < 50 nM | CC[C@@H](NC)C(=O)NC12CC(Cn3c(C#N)cc4c(C)c(CN5CCC(Nc6ncnc7sc(CC(F)(F)F)cc67)CC5)ccc43)(C1)C2 [Compound 70] |  |
| < 50 nM | CC[C@@H](N)C(=O)NC12CC(Cn3c(C#N)cc4c(C)c(CN5CCC(Nc6ncnc7sc(CC(F)(F)F)cc67)CC5)ccc43)(C1)C2 [Compound 71] |  |
| < 50 nM | CNC(CO)C(=O)NC12CC(Cn3c(C#N)cc4c(C)c(CN5CCC(Nc6ncnc7sc(CC(F)(F)F)cc67)CC5)ccc43)(C1)C2 (centres unmarked) [Compound 76] |  |
| < 50 nM | CNc1nc(NC2CCN(Cc3ccc4c(cc(C#N)n4CC45CC(NC(=O)Cc6cccc(N)c6)(C4)C5)c3C)CC2)c2cc(CC(F)(F)F)sc2n1 [Compound 79] |  |
| < 50 nM | CNc1nc(NC2CCN(Cc3ccc4c(cc(C#N)n4CC45CC(NC(=O)Cc6ccccc6N)(C4)C5)c3C)CC2)c2cc(CC(F)(F)F)sc2n1 [Compound 80] |  |
| < 50 nM | CNc1nc(NC2CCN(Cc3ccc4c(cc(C#N)n4CC45CC(NC(C)=O)(C4)C5)c3C)CC2)c2cc(CC(F)(F)F)sc2n1 [Compound 82] | IC50 [1, 4]: ≤ 50 nM; MV4;11 tumor growth (tumor volume) relative to vehicle control [2]: inhibited tumor growth and induced tumor regression |
| < 50 nM | Cc1nc(NC2CCN(Cc3ccc4c(cc(C#N)n4CC45CC(NC=O)(C4)C5)c3C)CC2)c2cc(CC(F)(F)F)sc2n1 [Compound 83] |  |
| < 50 nM | CC(=O)NC12CC(Cn3c(C#N)cc4c(C)c(CN5CCC(Nc6nc(C)nc7sc(CC(F)(F)F)cc67)CC5)ccc43)(C1)C2 [Compound 84] |  |
| < 50 nM | CNc1nc(NC2CCN(Cc3ccc4c(cc(C#N)n4CC45CC(NC=O)(C4)C5)c3C)CC2)c2cc(CC(F)(F)F)sc2n1 [Compound 85] |  |
| < 50 nM | CCC(=O)NC12CC(Cn3c(C#N)cc4c(C)c(CN5CCC(Nc6nc(NC)nc7sc(CC(F)(F)F)cc67)CC5)ccc43)(C1)C2 [Compound 86] |  |

Reference: patent US11555041B2, “Bridged bicyclic inhibitors of menin-MLL and methods of use” (Kura Oncology, Inc., priority 2016, dated 2023)
